# Measurements from PMC7006816, “Human β-Defensin 2 Mediated Immune Modulation as Treatment for Experimental Colitis” (Frontiers in Immunology, 2020).
# Where no end group is shown, it is not given here.
# Columns and labels:
# [1] = system: C57BL/6 mice with DSS colitis; assay: DSS colitis model; format: in vivo, mouse; details: 0.1 mg/kg s.c. once a day
# Procedure: The DSS colitis study was performed by Farma-Cros Ibérica according to directive 86/609 EEC and approved by Novozymes science ethics committee. 7–8 weeks old male C57BL/6 mice were used (Charles River) and each group consisted of 10 animals. Animal allocation to all experimental groups was done in a randomized manner. Colitis was induced by supplementing the drinking water with 2% dextran sodium sulfate (DSS, 30–50 kDA, MP Biomedicals) for 7 days. On day 1 all mice were weighed and the drinking bottle was filled with the DSS solution, this solution was replaced on day 3 and 5. On day 8 the remaining solution was discarded and replaced with autoclaved water. Mice were divided into 3 groups. One group received PBS as sham treatment intravenously. One group received on day 1, 4, and 8, 300 μg/mouse of a mouse anti-TNF-α antibody (αTNF, Ramcon) intraperitoneally. The animals in the other group were dosed s.c. with 0.1 mg/kg hBD2 once a day, starting at day 1 until day 10. Animals were euthenized on day 10. Daily clinical assessment was carried out to calculate a validated clinical disease activity index (DAI) ranging from 0 to 4 according to the following parameters: body weight loss, presence or absence of rectal bleeding, stool consistency. One mouse in the DSS control group had to be euthanized before the end of the study.
# (§1) Sections of the colon were taken from each animal and preserved in neutral buffered formaline for subsequent histological analysis. Sections were stained using haematoxylin and eosin for further scoring.
# [2] = system: SCID mice with CD4+/CD25− T cell transfer colitis; assay: T cell transfer colitis model; format: in vivo, mouse
# Procedure: This study was performed by the Department of Biomedical Science at the University of Catania according to directive 86/609 EEC and approved by Novozymes science ethics committee. 8 weeks old female BALB/c and C.B-17 female SCID mice were purchased from Harlan (Italy). Colitis was induced in severe combined immunodeficiency (SCID) mice by transplantation of CD4^+/CD25^− T cells from the BALB/c mice. Briefly, lymphomonocytes isolated from spleen or lymph nodes from BALB/c mice were subjected to negative selection of CD4^+ T cells. Afterwards, CD4^+/CD25^+ cells were positively isolated by binding to the beads from the CD4^+ T cell suspensions and the CD4^+/CD25^− were collected from supernatant. […] CD4^+/CD25^− cells were intraperitoneally injected to SCID mice at a concentration of 500,000 cells in a final volume of 0.2 ml RPMI 1640. Sham treated animals (n = 6) received 0.2 ml pure RPMI 1640. Diseased mice were randomized divided into 4 groups (n = 11) and treated once daily by s.c. application of PBS (vehicle), hBD2 (0.1 and 1 mg/kg, respectively) or 0.3 mg/kg Dexamethasone (Dexa., applied intraperitoneally). Treatments started 7 days post T cell transfer and continued daily for 86 days. Animals were weighed three times a week and monitored twice a week starting from day 42 for the clinical status, summarized as DAI. The DAI included body weight loss, stool consistency, and the presence of blood at the rectum. One animal in the vehicle and one in the Dexamethasone treated groups had to be sacrificed before the end of the study. At the end of the study, animals were sacrificed and the colon was removed and carefully cleaned for further analysis. First, the colon was weighed then a section from the middle was removed and fixed for pathologic survey. The rest of the colon (5 cm) was used to quantify the activity of myeloperoxidase in the tissue.
# Myeloperoxidase activity was performed on 5 cm of colon previously frozen at −80°C. Colon was homogenized in 0.5% of HETAB dissolved in 10 mM of Phosphate-Citrate Buffer (pH 7.0) to enable the release of MPO enzyme from the neutrophil granules. Homogenated samples after three freeze-thaw cycles were spun at 3,000 × g at 4°C for 30 min. Pellets were resuspended in 0.5% HETAB in 10 mM Phosphate-Citrate Buffer and spun again at 3,000 × g at 4°C for 30 min. 500 ul of supernatant were delivered into a vial along with 500 ul of TMB in Phosphate-Citrate Buffer containing Perborate Sodium. Changes in absorbance at 620 and 450 nm were read by a spectrophotometer (IRIS). Peroxidase enzyme diluted in 0.5% HETAB in 10 mM Phosphate-Citrate Buffer and H2O was used as standard. Two-fold dilutions of standard were prepared at the highest concentration of 50 pg/ml. Reagents and samples were kept refrigerated. Substrate solution was prepared just before the assay. MPO activity expresses the amount of enzyme that is able to degrade […] of peroxide/min and it is expressed as U/g tissue weight.
# as §1
# [3] = hBD2 1 mg/kg s.c. daily, n = 11
substance,measurement,setting,value
"human β-defensin 2 (GIGDPVTCLKSGAICHPVFCPRRYKQIGTCGLPGTKCCKKP; not fully specified; ends and bridges not checked) [hBD2, Recombinant human β-defensin 2 expressed in E. coli as his-tagged thioredoxin fusion, cleaved and purified, natural tertiary structure]",Outcome of DSS colitis,"[1]; day 1-10, 2% DSS 7 days, n = 10",significant improvement of colitis
same,"Therapeutic effect compared with anti-TNF-α antibody (300 μg/mouse i.p. day 1, 4, 8)",[1]; 2% DSS,superior to anti-TNF-α treatment
same,Histology score of the colon (mucosal damage),"[1]; 2% DSS, end of experiment, n = 10",significantly reduced mucosal damage
same,DAI,"[1]; 2% DSS, n = 10",improved the DAI
same,Weight change,"[1]; 2% DSS, n = 10",prevented excessive weight loss
same,Outcome of T cell mediated colitis,"[2]; hBD2 0.1 mg/kg s.c. daily, n = 11",did not improve the outcome of T cell mediated colitis
same,Histological analysis of colon,[2]; hBD2 1 mg/kg s.c. daily,less signs of inflammation and tissue disruption
same,Weight change,"[2]; hBD2 1 mg/kg s.c. daily from day 7 after transfer, n = 11",less weight loss
same,Colon weight,"[2]; hBD2 1 mg/kg s.c. daily, end of experiment, n = 11",significantly reduced the colon weight
same,DAI,[2]; [3],improved DAI
same,Stool score,[2]; [3],Same trait was observed for the stool score
same,Colonic myeloperoxidase activity,"[2]; hBD2 s.c. daily (0.1 or 1 mg/kg), end of experiment",Only a minor effect
